According to ChEMBL document CHEMBL1649507, “CMY-29 and CMY-30, two novel plasmid-mediated AmpC beta-lactamases” (2009):
Converted amounts (≈) assume the structure as drawn.

Columns and labels:
Type in all cases: functional
Escherichia coli [1] = test: Antibacterial activity against Escherichia coli isolate ARL05-909 harboring beta-lactamase CMY 29 by broth microdilution method
Escherichia coli [2] = test: Antibacterial activity against Escherichia coli isolate ARL06-39 harboring beta-lactamase CMY 30 by broth microdilution method
Escherichia coli [3] = test: Antibacterial activity against Escherichia coli isolate ARL04-413 harboring beta-lactamase CMY 2 by broth microdilution method
Escherichia coli [4] = test: Antibacterial activity against Escherichia coli isolate ARL05-705 harboring beta-lactamase CMY 7 by broth microdilution method

CO/N=C(\C(=O)N[C@@H]1C(=O)N2C(C(=O)[O-])=C(C[N+]3(C)CCCC3)CS[C@H]12)c1csc(N)n1 [CEFEPIME]
MIC (Escherichia coli [1]): 1 mg/L (≈ 2.08 µM)
MIC (Escherichia coli [2]): 0.5 mg/L (≈ 1.04 µM)
MIC (Escherichia coli [3]): 0.25 mg/L (≈ 0.52 µM)
MIC (Escherichia coli [4]): 0.25 mg/L (≈ 0.52 µM)

CO[C@@]1(NC(=O)Cc2cccs2)C(=O)N2C(C(=O)O)=C(COC(N)=O)CS[C@@H]21 [CEFOXITIN]
MIC (Escherichia coli [1]): ≥ 256 mg/L
MIC (Escherichia coli [2]): 128 mg/L (≈ 299 µM)
MIC (Escherichia coli [3]): ≥ 256 mg/L
MIC (Escherichia coli [4]): 64 mg/L (≈ 150 µM)

CC(C)(O/N=C(\C(=O)N[C@@H]1C(=O)N2C(C(=O)[O-])=C(C[n+]3ccccc3)CS[C@H]12)c1csc(N)n1)C(=O)O [CEFTAZIDIME]
MIC (Escherichia coli [1]): ≥ 128 mg/L
MIC (Escherichia coli [2]): 32 mg/L (≈ 58.5 µM)
MIC (Escherichia coli [3]): 64 mg/L (≈ 117 µM)
MIC (Escherichia coli [4]): 64 mg/L (≈ 117 µM)

CO/N=C(\C(=O)N[C@@H]1C(=O)N2C(C(=O)O)=C(CSc3nc(=O)c(O)nn3C)CS[C@H]12)c1csc(N)n1 [CEFTRIAXONE]
MIC (Escherichia coli [1]): 128 mg/L (≈ 231 µM)
MIC (Escherichia coli [2]): 32 mg/L (≈ 57.7 µM)
MIC (Escherichia coli [3]): 32 mg/L (≈ 57.7 µM)
MIC (Escherichia coli [4]): 32 mg/L (≈ 57.7 µM)

C[C@@H](O)[C@H]1C(=O)N2C(C(=O)O)=C(SCCNC=N)C[C@H]12 [IMIPENEM ANHYDROUS]
MIC (Escherichia coli [1]): 0.5 mg/L (≈ 1.67 µM)
MIC (Escherichia coli [2]): 0.5 mg/L (≈ 1.67 µM)
MIC (Escherichia coli [3]): 0.25 mg/L (≈ 0.835 µM)
MIC (Escherichia coli [4]): 0.5 mg/L (≈ 1.67 µM)

C[C@@H](O)[C@H]1C(=O)N2C(C(=O)O)=C(S[C@@H]3CN[C@H](C(=O)N(C)C)C3)[C@H](C)[C@H]12 [MEROPENEM]
MIC (Escherichia coli [1]): ≤ 0.12 mg/L
MIC (Escherichia coli [2]): ≤ 0.12 mg/L
MIC (Escherichia coli [3]): ≤ 0.12 mg/L
MIC (Escherichia coli [4]): ≤ 0.12 mg/L
